According to US10723699B2 (Hyundai Pharm Co., Ltd., priority 2015, dated 2020):
Where two headings read alike, the source gives them in different places.

Molecular target: T1, G protein-coupled receptor 119 (GPR-119) (Mesocricetus auratus, UniProt A0A1U8CD06)
T1 construct: hamster-derived β-cells containing G protein-coupled receptor 119 (GPR-119), HIT-T15 cells; host or cells: HIT-T15 (hamster pancreatic β-cells)
T1 sequence (A0A1U8CD06 1-334): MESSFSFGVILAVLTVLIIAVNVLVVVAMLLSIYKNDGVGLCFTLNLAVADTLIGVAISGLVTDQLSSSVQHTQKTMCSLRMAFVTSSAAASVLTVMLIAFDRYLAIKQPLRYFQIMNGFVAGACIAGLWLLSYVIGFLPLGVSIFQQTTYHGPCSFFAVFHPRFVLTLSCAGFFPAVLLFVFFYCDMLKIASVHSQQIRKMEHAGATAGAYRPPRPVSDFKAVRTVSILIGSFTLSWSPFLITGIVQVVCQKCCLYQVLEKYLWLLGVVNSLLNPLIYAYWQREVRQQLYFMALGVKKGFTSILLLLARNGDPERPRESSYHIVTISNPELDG
Assay: cAMP activity in HIT-T15 cells (cAMP dynamic kit, FRET)
Format: cell-based, hamster
How it was run: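 Hamster HIT-T15 cells (60,000/well) were treated next day with compound at six concentrations, 0.0032–10 μM, for 1 h at 37° C. Cells were then lysed and cAMP measured by competitive HTRF immunoassay (D2-cAMP, cryptate anti-cAMP). Activity was derived as the change in FRET signal relative to DMSO.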

[1] = 1 hour at 37° C., six concentrations 0.0032 to 10 μM, read-out: EC50

Row | EC50 [1] [µM] | EC50 (Table 2, read-out: EC50 value) [µM] | Compound
1 | 0.011 | ≤ 0.05 | CCc1cnc(N2CCC(COc3ccc(C4=CCC(C(=O)N5CCC(=NO)CC5)CC4)cc3F)CC2)nc1 (stereo not drawn) [Example 377, (4-(4-((1-(5-ethylpyrimidin-2-yl)piperidin-4-yl)methoxy)-3-fluorophenyl)cyclohex-3-enyl)(4-(hydroxyimino)piperidin-1-yl)methanone]
2 | 0.079 |  | CCc1cnc(N2CCC(COc3ccc(C4=CCC(C(=O)N5CCN(CCCO)CC5)CC4)cc3)CC2)nc1 (stereo not drawn) [Example 380, (4-(4-((1-(5-ethylpyrimidin-2-yl)piperidin-4-yl)methoxy)phenyl)cyclohex-3-enyl)(4-(3-hydroxypropyl)piperazin-1-yl)methanone]
3 | 0.048 | ≤ 0.05 | CCc1cnc(N2CCC(COc3ccc(C4=CCC(C(=O)N5CCN(C(=O)OC(C)(C)C)CC5)CC4)cc3F)CC2)nc1 (stereo not drawn) [Example 383, tert-butyl 4-(4-(4-((1-(5-ethylpyrimidin-2-yl)piperidin-4-yl)methoxy)-3-fluorophenyl)cyclohex-3-enecarbonyl)piperazine-1-carboxylate]
4 | 0.1 |  | CCc1cnc(N2CCC(COc3ccc(C4=CCC(C(=O)N5CCN(C)CC5)CC4)cc3F)CC2)nc1 (stereo not drawn) [Example 384, (4-(4-((1-(5-ethylpyrimidin-2-yl)piperidin-4-yl)methoxy)-3-fluorophenyl)cyclohex-3-enyl)(4-methylpiperazin-1-yl)methanone]
5 | 0.045 | ≤ 0.05 | CCc1cnc(N2CCC(COc3ccc(C4=CCC(C(=O)N5CCCCC5)CC4)cc3C#N)CC2)nc1 (stereo not drawn) [Example 385, 2-((1-(5-ethylpyrimidin-2-yl)piperidin-4-yl)methoxy)-5-(4-(piperidine-1-carbonyl)cyclohex-1-enyl)benzonitrile]
6 | 0.064 |  | CCc1cnc(N2CCC(COc3ccc(C4=CCC(C(=O)N5CCCC5)CC4)cc3C#N)CC2)nc1 (stereo not drawn) [Example 386, 2-((1-(5-ethylpyrimidin-2-yl)piperidin-4-yl)methoxy)-5-(4-(pyrrolidine-1-carbonyl)cyclohex-1-enyl)benzonitrile]
7 | 0.079 |  | CCc1cnc(N2CCC(COc3ccc(C4=CCC(C(=O)N5CCC5)CC4)cc3C#N)CC2)nc1 (stereo not drawn) [Example 387, 5-(4-(azetidine-1-carbonyl)cyclohex-1-enyl)-2-((1-(5-ethylpyrimidin-2-yl)piperidin-4-yl)methoxy)benzonitrile]
8 | 0.051 |  | CCc1cnc(N2CCC(COc3ccc(C4=CCC(C(=O)N5CCOCC5)CC4)cc3C#N)CC2)nc1 (stereo not drawn) [Example 388, 2-((1-(5-ethylpyrimidin-2-yl)piperidin-4-yl)methoxy)-5-(4-(morpholine-4-carbonyl)cyclohex-1-enyl)benzonitrile]
9 | 0.13 |  | CCc1cnc(N2CCC(COc3ccc(C4=CCC(C(=O)N5CCCC5)CC4)cc3N)CC2)nc1 (stereo not drawn) [Example 393, (4-(3-amino-4-((1-(5-ethylpyrimidin-2-yl)piperidin-4-yl)methoxy)phenyl)cyclohex-3-enyl)(pyrrolidin-1-yl)methanone]
10 | 0.014 |  | CCc1cnc(N2CCC(COc3ccc(C4=CCC(C(=O)N5CCN(C6CC6)CC5)CC4)cc3)CC2)nc1 (stereo not drawn) [Example 395, (4-cyclopropylpiperazin-1-yl)(4-(4-((1-(5-ethylpyrimidin-2-yl)piperidin-4-yl)methoxy)phenyl)cyclohex-3-enyl)methanone]
11 | 0.11 |  | CCc1cnc(N2CCC(COc3ccc(C4=CCC(C(=O)N5CCC(C#N)CC5)CC4)cc3C(F)(F)F)CC2)nc1 (stereo not drawn) [Example 398, 1-(4-(4-((1-(5-ethylpyrimidin-2-yl)piperidin-4-yl)methoxy)-3-(trifluoromethyl)phenyl)cyclohex-3-enecarbonyl)piperidine-4-carbonitrile]
12 | 0.14 |  | CCc1cnc(N2CCC(COc3ccc(C4=CCC(C(=O)N5CCOCC5)CC4)cc3C(F)(F)F)CC2)nc1 (stereo not drawn) [Example 400, (4-(4-((1-(5-ethylpyrimidin-2-yl)piperidin-4-yl)methoxy)-3-(trifluoromethyl)phenyl)cyclohex-3-enyl)(morpholino)methanone]

Continued, molecule first:

Row | Compound | EC50 [1] [µM] | EC50 (Table 2, read-out: EC50 value) [µM]
13 | CCc1cnc(N2CCC(COc3ccc(C4=CCC(C(=O)N5CCCCC5)CC4)cc3C(F)(F)F)CC2)nc1 (stereo not drawn) [Example 375, (4-(4-((1-(5-ethylpyrimidin-2-yl)piperidin-4-yl)methoxy)-3-(trifluoromethyl)phenyl)cyclohex-3-enyl)(piperidin-1-yl)methanone] | 0.11 | 
14 | CCc1cnc(N2CCC(COc3ccc(C4=CCC(C(=O)N(C)CCCO)CC4)cc3F)CC2)nc1 (stereo not drawn) [Example 376, 4-(4-((1-(5-ethylpyrimidin-2-yl)piperidin-4-yl)methoxy)-3-fluorophenyl)-N-(3-hydroxypropyl)-N-methylcyclohex-3-enecarboxamide] | 0.0105 | ≤ 0.05
15 | CCc1cnc(N2CCC(COc3ccc(C4=CCC(C(=O)NCC(C)(C)CO)CC4)cc3F)CC2)nc1 (stereo not drawn) [Example 378, 4-(4-((1-(5-ethylpyrimidin-2-yl)piperidin-4-yl)methoxy)-3-fluorophenyl)-N-(3-hydroxy-2,2-dimethylpropyl)cyclohex-3-enecarboxamide] | 0.02 | ≤ 0.05
16 | CC(C)c1noc(N2CCC(COc3ccc(C4=CCC(C(=O)N5CCNCC5)CC4)cc3F)CC2)n1 (stereo not drawn) [Example 381, (4-(3-fluoro-4-((1-(3-isopropyl-1,2,4-oxadiazol-5-yl)piperidin-4-yl)methoxy)phenyl)cyclohex-3-enyl)(piperazin-1-yl)methanone] | 0.11 | 
17 | CC(C)c1noc(N2CCC(COc3ccc(C4=CCC(C(=O)N5CCN(C)CC5)CC4)cc3F)CC2)n1 (stereo not drawn) [Example 382, (4-(3-fluoro-4-((1-(3-isopropyl-1,2,4-oxadiazol-5-yl)piperidin-4-yl)methoxy)phenyl)cyclohex-3-enyl)(4-methylpiperazin-1-yl)methanone] | 0.042 | ≤ 0.05
18 | CCc1cnc(N2CCC(COc3ccc(C4=CCC(C(=O)N5CCSCC5)CC4)cc3C#N)CC2)nc1 (stereo not drawn) [Example 389, 2-((1-(5-ethylpyrimidin-2-yl)piperidin-4-yl)methoxy)-5-(4-(thiomorpholine-4-carbonyl)cyclohex-1-enyl)benzonitrile] | 0.068 | 
19 | CCc1cnc(N2CCC(COc3ccc(C4=CCC(C(=O)N5CCC(O)CC5)CC4)cc3C#N)CC2)nc1 (stereo not drawn) [Example 390, 2-((1-(5-ethylpyrimidin-2-yl)piperidin-4-yl)methoxy)-5-(4-(4-hydroxypiperidine-1-carbonyl)cyclohex-1-enyl)benzonitrile] | 0.07 | 
20 | CCc1cnc(N2CCC(COc3ccc(C4=CCC(C(=O)N5CCC(CO)CC5)CC4)cc3C#N)CC2)nc1 (stereo not drawn) [Example 391, 2-((1-(5-ethylpyrimidin-2-yl)piperidin-4-yl)methoxy)-5-(4-(4-(hydroxymethyl)piperidine-1-carbonyl)cyclohex-1-enyl)benzonitrile] | 0.027 | ≤ 0.05
21 | CC(C)(C)OC(=O)N1CCC(COc2ccc(C3=CCC(C(=O)N4CCCC4)CC3)cc2F)CC1 (stereo not drawn) [Example 392, tert-butyl 4-((2-fluoro-4-(4-(pyrrolidine-1-carbonyl)cyclohex-1-enyl)phenoxy)methyl)piperidine-1-carboxylate] | 0.01 | ≤ 0.05
22 | CC(C)c1noc(N2CCC(COc3ccc(C4=CCC(C(=O)N5CCN(C6CC6)CC5)CC4)cc3)CC2)n1 (stereo not drawn) [Example 397, (4-cyclopropylpiperazin-1-yl)(4-(4-((1-(3-isopropyl-1,2,4-oxadiazol-5-yl)piperidin-4-yl)methoxy)phenyl)cyclohex-3-enyl)methanone] | 0.0099 | 
